We go through 12 molecules from patent US20130123358A1, “Metabolic Benefits to Butyrate as a Chronic Diet Supplement” (priority 2009, published 2013).

The test system of test [1] is HDAC. Description: Histone Deacetylase Assay Kit, inhibition by butyrate isoforms. The settings on record: Histone Deacetylase Assay Kit (Upstate), FIG. 8.
Excerpt: Several isoforms of butyrate were purchased (Sigma Aldrich Chemicals, St. Louis, Mo.) and tested for inhibitory activity of HDAC, using a Histone Deacetylase Assay Kit (Upstate Biotechnology, Lake Placid, N.Y.).
In test [2] the test system is C57BL/6J mice on high fat diet. The experiment in a line: TSA in HFD-fed mice (body weight, ITT, insulin signaling, muscle fiber). It is filed as in vivo, mouse. To be noted: TSA 0.6 ug/kg/day i.p. How it is done:
Sodium butyrate was administrated through dietary supplementation. Sodium butyrate (#303410, Sigma) was incorporated into the HFD evenly through blending the diet and sodium butyrate together at 400 rpm in a food processor. Sodium butyrate (50 g) was used in 1 kg diet to reach a dose of 5% w/w. The sodium butyrate containing diet was pelleted and stored in a −20° C. freezer. Trichostatin A (TSA) (T-1052, A.G. Scientific Inc. San Diego, Calif.) was dissolved in DMSO, and diluted in 0.9% saline at 2:98 ratio. The TSA solution (200 ul) was administrated by intra-peritoneal (i.p.) injection to reach a dose of […]. The control mice were administrated with the same volume of vehicle. 50 ml of tributyrin (#113026, Sigma) was incorporated into one kilogram of Chow diet in powder to reach a dose of 5% w/w in mice.
Trichostatin A (TSA) is a well-established HDAC inhibitor that is frequently used in the study of HDACs. The data presented above indicate that the metabolic activity of butyrate may be in part related to inhibition of HDACs. TSA activity was examined in the same model of murine obesity. TSA was administrated through daily i.p. injection during HFD feeding to C57BL/6J mice. The control mice were injected with an identical volume of PBS.
The mice at 5 weeks in age were fed HFD to induce obesity, and TSA was administrated at the dose of 0.6 ug/kg/day. The effects of TSA treatment were tested after 12-13 weeks. […] FIG. 11C indicates the insulin signaling in the gastrocnemius muscle. The muscle was isolated after insulin (0.75 U/kg) injection for 30 minutes and used to prepare whole cell lysate for immunoblot. IRS-1 and Akt were examined for tyrosine (Y632) and serine (S473) phosphorylation.
In addition, the vastus laterais muscle was isolated from the mice at 13 weeks on HFD, and used to make serial cryostat sections of muscle. The muscle slides made from vastus lateralis, gastrocnemius (gastr.) and soleus muscle were stained with antibody against the type I myosin heavy chain in the oxidative fiber. The photograph was taken at 20× magnification. The whole cell lysate was prepared from gastrocnemius muscle and analyzed in an immunoblot. PGC-1α, type I myosin heavy chain (Myosin) and myoglobin were blotted with specific antibodies, and the results shown in FIG. 11D. The results in FIGS. 11A-11D are the mean±SE (n=8 in each group). *P<0.05 (vs. control).

The test system of test [3] is HDAC. Description: Histone deacetylase assay on muscle nuclear extracts of treated mice. The class given is in vivo, mouse. To be noted: TSA-treated mice on HFD, positive control. How it is done: Histone deacetylase assay were conducted according to the instruction from the manufacturer (#17-320, Upstate). Briefly, 10 ug of muscle nuclear extract (as an enzyme) was incubated with [3H]-acetyl CoA (#TRK688, Amersham) radio labeled histone H4 peptide (25,000 CPM, as a substrate) at 37° C. for 12 hours by shaking Released [3H]-acetate was measured using a scintillation counter. The nuclear extract was prepared according to a protocol described elsewhere (17). The muscle tissues were collected and snap-frozen in liquid nitrogen within 2 min of cervical dislocation of mice. Tissue samples were stored at −80° C. until further processing. The muscle sample of 200˜300 mg was cut into small pieces on dry ice and homogenized in 1 ml of lysate buffer. After centrifugation at 10,000 rpm for 1 minute at 4° C., the nucleus was pelleted and collected. After being washed, the nucleus pellet was treated with extraction buffer. The supernatant was collected for nuclear protein after centrifugation at 14,000 rpm for 5 minutes at 4° C.
Without wishing to be bound by this theory, one activity of butyrate could be related to inhibition of HDAC. Sodium butyrate inhibits the class I and class II histone deacetylases (HDACs). To test this possibility, HDAC activity was examined in the skeletal muscle of mice at 16 weeks on HFD (FIG. 7G). The assay was conducted with the nuclear extracts of muscle samples. […]

The subject of test [4] is C57BL/6J mice on chow diet. Description: Amyl butyrate in mice on chow diet for 4 months. To be noted: amyl butyrate 5 g/kg BW/day in chow diet. It is filed as in vivo, mouse. How it is done:
Amyl butyrate was administrated at 5 g/kg BW/day in C57BL/6J mice for 4 months. The amyl butyrate was added to the chow diet. […] FIGS. 14B and 14C show the body fat and muscle content measured by NMR as described above. […] In FIGS. 14A-14E, values are the mean±SE (n=7). *P<0.05, **P<0.001 compared to the control by Student's t test.

Another test concerns ob/ob mice. Description: Tributyrin in ob/ob genetically obese mice. To be noted: tributyrin 5 g/kg body weight/day in chow diet. The class given is in vivo, mouse. Here is the method:
Male C57BL/6J (4 weeks in age) and ob/ob mice (4 weeks in age) were purchased from the Jackson Laboratory (Bar Harbor, Me.). After one week quarantine, the C57BL/6J mice were fed on the high fat diet (HFD, D12331, Research Diets, New Brunswick, N.J.), which contains 58% calories in fat. The ob/ob mice were fed on Chow diet (5001, Lab Diet) that contains 13.4% calories in fat. All of the mice were housed in the animal facility with a 12:12-h light-dark cycle and constant temperature (22-24° C.). The mice were free to access water and diet. All procedures were performed in accordance with National Institute of Health guidelines for the care and use of animals and approved by the Institute Animal Care and Use Committee at the Pennington Biomedical Research Center.
Sodium butyrate was administrated through dietary supplementation. Sodium butyrate (#303410, Sigma) was incorporated into the HFD evenly through blending the diet and sodium butyrate together at 400 rpm in a food processor. Sodium butyrate (50 g) was used in 1 kg diet to reach a dose of 5% w/w. The sodium butyrate containing diet was pelleted and stored in a −20° C. freezer. […]
To test effect of different forms of butyric acid, tributyrin was used in the ob/ob genetically obese mice model. […] After 2 weeks, body weight was measured and an insulin tolerance test was given. […]

As to `CCCC(=O)OCC(C)C` [isobutyl butyrate], the “inhibitory activity of HDAC” value in the test on HDAC [1] was “inhibited HDAC”.
Same read-out and setting: in the case of `CCCC(=O)OCCc1ccccc1` [pennetyl butyrate] it was “inhibited HDAC”; in that of `CCCC(=O)OCc1ccccc1` [benzyl butyrate], “inhibited HDAC”; in that of `CCCC(=O)OC(C)c1ccccc1` (stereo not shown) [a-methylbenzyl butyrate], “inhibited HDAC”.
Same read-out and setting: in the case of `CCCCCCOC(=O)CCC` [hexyl butyrate] it was “inhibited HDAC”; in that of `CCCCCCCOC(=O)CCC` [heptyl butyrate], “inhibited HDAC”.
For `CC(/C=C/C(=O)NO)=C\[C@@H](C)C(=O)c1ccc(N(C)C)cc1` [TSA, Trichostatin A], the “body weight, less than control” value in test [2] (12 weeks on HFD) worked out at 16%. The “insulin tolerance (ITT)” value in test [2] (12 weeks on HFD, 4 hour fast) was “significantly improved”. For the same molecule, in test [2] (13 weeks on HFD), the “expression of type I myosin heavy chain in gastrocnemius and soleus (histology)” value is reported as “increased”; the “oxidative fiber ratio in skeletal muscle” value is recorded as “increased”. The “insulin-induced signaling (IRS-1 Y632, Akt S473 phosphorylation) in gastrocnemius muscle” value in test [2] (30 minutes after insulin 0.75 U/kg) is “significantly improved”. For the same molecule, in test [2] (immunoblot), the “PGC-1α protein in gastrocnemius muscle” value was “all increased”, the “myoglobin protein in gastrocnemius muscle” value is “all increased” and the “type I myosin heavy chain protein in gastrocnemius muscle” value is given as “all increased”. In addition, in the test with HDAC [3], the “HDAC activity in skeletal muscle” value is “decreased”.
For `CCCCCOC(=O)CCC` [amyl butyrate], the “inhibitory activity of HDAC” value in the test on HDAC [1] is recorded as “inhibited HDAC”. Besides, in test [4], the body weight gain result is on record as “prevented body weight gain”; the “insulin resistance (fasting glucose and ITT)” value is given as “protected the mice from insulin resistance”. For the same molecule, in test [4] (NMR), the body fat gain result is “prevented fat gain” and the lean body mass result is recorded as “without affecting lean body mass”.
Turning to `CC(C)C(O)C(=O)O` (stereo not shown) [2-hydroxy-3-methylbutanoic acid], the “inhibitory activity of HDAC” value with HDAC [1] was “inhibited HDAC”.
The same measure, in the same setting: with `CCCCOC(=O)CCC` [butyl butyrate] the entry was “inhibited HDAC”; with `CCCC(=O)OC` [methyl butyrate], “inhibited HDAC”.
Consider `CCCC(=O)OCC(COC(=O)CCC)OC(=O)CCC` [tributyrin], for which the weight gain result in the test with ob/ob mice (2 weeks, vs control) is given as “significantly reduced”. In the test with ob/ob mice (4 hours fasting), the “insulin sensitivity (ITT)” value is “preserved”.
